Measured values: PMC10265003 (Royal Society Open Science, 2023)
Read-outs that look alike come from different tables or passages of the source. Positions of bridges follow the written chain, without caps; N, C: chain ends. Non-standard residues stand in square brackets, D forms with d. Residues, ends and D or L forms follow the SMILES beside them. Chains are numbered I, II in the order given. No end group written: not given here. 4Abz = Nc1ccc(C(=O)O)cc1; 2Abz = Nc1ccccc1C(=O)O; Ahx = NCCCCCC(=O)O

Key:
[1] = RP-HPLC retention time as measure of hydrophobicity; assay type: physicochemical; conditions: Chromolith RP-18e, water/ACN with 0.05% TFA, 5-50% B from 1 to 9 min, 2 ml min^−1, 210 nm, used as measure of hydrophobicity
Method: The peptides were analysed using a Hitachi Primaide-DAD 1110 chromatograph and a Chromolith RP-18e High Resolution column (100 × 4.1 i.d. mm) (Merck, Darmstadt, Germany). Water containing 0.05% TFA was used as solvent A, and ACN containing 0.05% TFA was used as solvent B. The elution programme used was […] at a flow rate of 2 ml min^−1 and a wavelength of 210 nm. Ten microlitres of each peptide solution was injected at an approximate concentration of […].

MCF-7 breast cancer line [2] = assay type: cell-based, human; conditions: 2 h
Method: The MTT assay was performed in accordance with previous reports. Briefly, the cells were seeded with a complete medium in 96-well plates at a rate of 10 000 cells and 100 µl per well, and adhesion to the plates was allowed for 24 h. Later, the complete medium was removed, and an incomplete medium was added for synchronization for another 24 h. The cells were then incubated at 37°C for 2 h with 100 µl of peptide at the evaluated concentrations (200, 100, 50, 25, 12.5 and 6.25 µg ml^−1). Next, the peptide was removed from the well and 100 µl of incomplete medium with 10% MTT was added and incubated for 4 h. The medium was replaced with 100 µl of isopropanol, and after 30 min of incubation at 37°C, the absorbance was measured at 575 nm. As a negative control, an incomplete culture medium with 10% MTT was used, and as a positive control, cells without MTT treatment were used. The IC50 value was determined from figure 1 (peptide concentration versus per cent cell viability) using a nonlinear regression model with variable slope and GraphPad Prism 9 statistical analysis software.

pepsin = assay: Pepsin dissolved in 0.010 M HCl (pH 2.0); peptides dissolved in H2O-TFA 0.05% (v/v); conditions: 37°C, up to 3 h
[3] = tested on: MDA-MB-468 breast cancer cell line; conditions: cytotoxic effect; cited from earlier work
From the text: (§1) Solid-phase peptide synthesis has allowed chemical and structural modifications to be made to ACPs in order to enhance their activity and increase their resistance to proteolytic degradation.

[4] = tested on: MDA-MB-231 breast cancer cell line; conditions: cytotoxic effect; cited from earlier work
From the text: as §1

MCF-7 breast cancer line [5] = conditions: cytotoxic effect against MCF-7 cells, not tested in this paper; cited from earlier work
From the text: Dimeric peptides derived from peptide ^26[F]: (RRWQWRFKKLG)2-K-Ahx were synthesized and characterized. The analogues with the highest synthetic viability in terms of purity and yield were ^26[1-Nal] and ^26[hF].

[6] = tested on: human breast cancer lines MDA-MB-468 and MDA-MB-231; conditions: 4 mg via intra-tumoural route, cited from earlier work
Method: Mice treated with peptide ^26[F] recovered completely after 24 h, and the survival rate was 100% after one week of observation. […] Peptide ^26[F] was inoculated in female mic ...

Compound: CC(C)C[C@H](NC(=O)[C@H](CCCCN)NC(=O)[C@H](CCCCN)NC(=O)c1ccccc1NC(=O)[C@H](Cc1c[nH]c2ccccc12)NC(=O)[C@H](CCC(N)=O)NC(=O)[C@H](Cc1c[nH]c2ccccc12)NC(=O)[C@H](CCCNC(=N)N)NC(=O)[C@@H](N)CCCNC(=N)N)C(=O)NCC(=O)NCCCC[C@H](NC(=O)CNC(=O)[C@H](CC(C)C)NC(=O)[C@H](CCCCN)NC(=O)[C@H](CCCCN)NC(=O)c1ccccc1NC(=O)[C@H](Cc1c[nH]c2ccccc12)NC(=O)[C@H](CCC(N)=O)NC(=O)[C@H](Cc1c[nH]c2ccccc12)NC(=O)[C@H](CCCNC(=N)N)NC(=O)[C@@H](N)CCCNC(=N)N)C(=O)NCCCCCC(N)=O [^26[2-Abz], (RRWQWR-2-Abz-KKLG)2-K-Ahx] (I: H-RRWQW[2Abz]KKLGK[Ahx]-NH2 / II: H-RRWQW[2Abz]KKLG; amide I:11-II:C; N-terminus assumed)
- tR [1]: 5.9 min

Compound: CC(C)C[C@H](NC(=O)[C@H](CCCCN)NC(=O)[C@H](CCCCN)NC(=O)c1ccc(NC(=O)[C@H](Cc2c[nH]c3ccccc23)NC(=O)[C@H](CCC(N)=O)NC(=O)[C@H](Cc2c[nH]c3ccccc23)NC(=O)[C@H](CCCNC(=N)N)NC(=O)[C@@H](N)CCCNC(=N)N)cc1)C(=O)NCC(=O)NCCCC[C@H](NC(=O)CNC(=O)[C@H](CC(C)C)NC(=O)[C@H](CCCCN)NC(=O)[C@H](CCCCN)NC(=O)c1ccc(NC(=O)[C@H](Cc2c[nH]c3ccccc23)NC(=O)[C@H](CCC(N)=O)NC(=O)[C@H](Cc2c[nH]c3ccccc23)NC(=O)[C@H](CCCNC(=N)N)NC(=O)[C@@H](N)CCCNC(=N)N)cc1)C(=O)NCCCCCC(N)=O [^26[4-Abz], (RRWQWR-4-Abz-KKLG)2-K-Ahx] (I: H-RRWQW[4Abz]KKLGK[Ahx]-NH2 / II: H-RRWQW[4Abz]KKLG; amide I:11-II:C; N-terminus assumed)
- IC50 (MCF-7 breast cancer line [2]): 49 µM
- tR [1]: 5.9 min

Compound: (RRWQWR-1-Nal-KKLG)2-K-Ahx
- not cleaved (pepsin): pepsin treatment for 3 h did not induce proteolytic degradation

Compound: (RRWQWR-hF-KKLG)2-K-Ahx
- not cleaved (pepsin): pepsin treatment for 3 h did not induce proteolytic degradation

Compound: (^20RRWQWRMKKLG^30)2-K-Ahx [LfcinB (20–30)2]
- IC50 [3]: 5 µM
- IC50 [4]: 14 µM
- IC50 (MCF-7 breast cancer line [5]): ≥ 60 µM

Compound: Bovine lactoferricin (FKCRRWQWRMKKLGAPSITCVRRAF; ends and bridges not checked; cysteine pairing not given here; UniProt P24627 36-60, looked up) [LfcinB, 25-amino acid ACP generated by gastric pepsin digestion of bovine lactoferrin]
- safety on administration ([6]; NOD-SCI-gamma mice): safe
- anti-tumoural effect ([6]; xenografts of MDA-MB-468 and MDA-MB-231 in NOD-SCI-gamma mice): had anti-tumoural effect
